# Laboratory results from patent US4672068A, “Antihypertensive 1,4-dihydropyridines having a conjugated ester” (Fujirebio Kabushiki Kaisha, priority 1984, dated 1987).
# Experiments:
# [1] = system: Male spontaneously hypertensive rats (SHR), arterial blood pressure; test: Depressor response after intraduodenal administration (1 mg/kg), Table 2; assay type: in vivo, rat; details: for Half-life: '120<' means greater than 120
# Procedure: Arterial blood pressure was measured through the catherized artery with a pressure transducer (MPU-0.5, manufactured by Nihon Kohden Kabushiki Kaisha). The catheter was inserted into the abdominal aorta via the median coccygcal artery of SHR under light ether anesthesia. The recordings were made on a rectigraph (manufactured by Sanei Sokki Kabushiki Kaisha). The 1,4-dihydropyridine derivatives prepared in the foregoing examples were administered with catheter which was inserted previously into the caudal vein or duodenum at least two hours after the operation. SHR were restrained with wire mesh cage immediately after the operation.
# [2] = system: Male spontaneously hypertensive rats (SHR), arterial blood pressure; test: Depressor response after intravenous administration (30 μg/kg), Table 1; assay type: in vivo, rat; details: for Duration: '90<' means greater than 90
# Procedure: Male spontaneously hypertensive rats (SHR) which had mean arterial blood pressures higher than 140 mmHg were used for the experiments. Arterial blood pressure was measured through the catherized artery with a pressure transducer (MPU-0.5, manufactured by Nihon Kohden Kabushiki Kaisha). The catheter was inserted into the abdominal aorta via the median coccygcal artery of SHR under light ether anesthesia. The recordings were made on a rectigraph (manufactured by Sanei Sokki Kabushiki Kaisha). The 1,4-dihydropyridine derivatives prepared in the foregoing examples were administered with catheter which was inserted previously into the caudal vein or duodenum at least two hours after the operation. SHR were restrained with wire mesh cage immediately after the operation. Each derivative to be tested was dissolved in 1.5% PVP/ethanol, and then diluted with 0.9% saline or intravenous administration (30 μg/kg), or suspended in 5% gum arabic solution of intraduodenal administration (1 mg/kg).
# [3] = system: Male SHR, systolic blood pressure; test: Systolic blood pressure by tail cuff method, oral administration (3 mg/kg), Table 4; assay type: in vivo, rat; details: conscious SHR
# Procedure: Systolic blood pressure was measured by the tail cuff method with electrophygmomanometer (PE-300, made by Narco Co.). Each derivative (3 mg/kg) was administered orally, suspended in 5% gum arabic solution.
# [4] = system: rat (SHR), blood pressure and heart rate; test: Depressor response of trans- and cis-forms, dose-response intravenous, Tables 5 and 6; assay type: in vivo
# Procedure: Male spontaneously hypertensive rats (SHR) which had mean arterial blood pressures higher than 140 mmHg were used for the experiments. Arterial blood pressure was measured through the catherized artery with a pressure transducer (MPU-0.5, manufactured by Nihon Kohden Kabushiki Kaisha). The catheter was inserted into the abdominal aorta via the median coccygcal artery of SHR under light ether anesthesia. The recordings were made on a rectigraph (manufactured by Sanei Sokki Kabushiki Kaisha). The 1,4-dihydropyridine derivatives prepared in the foregoing examples were administered with catheter which was inserted previously into the caudal vein or duodenum at least two hours after the operation. SHR were restrained with wire mesh cage immediately after the operation. […]
Compound,ΔBP (Maximum depressor response) [1] [mmHg],The time to reach the lowest BP [1] [min],Half-life [1] [h],The time to reach the lowest BP [2] [min],ΔBP (Maximum depressor response) [2] [mmHg],Duration [2] [min],also measured
"COC(=O)C1=C(C)NC(C)=C(C(=O)OCCCc2ccccc2)C1c1cccc([N+](=O)[O-])c1 (centres unmarked) [E, 4(3-nitrophenyl)-2,6-dimethyl-1,4-dihydropyridine-3,5-dicarboxylic aci 3methyl ester 5(3-phenyl)-1-propyl ester, reference compound]",0,,,,,,
"COC(=O)C1=C(C)NC(C)=C(C(=O)OCCC=Cc2cccs2)C1c1cccc([N+](=O)[O-])c1 (stereo not drawn) [Example 11, 4-α-thienyl-3-butenyl methyl 4-(3-nitrophenyl)-2,6-dimethyl-1,4-dihydropyridine-3,5-dicarboxylate]",25,200,4,1.6,60,100,
"1-methyl-3-thienyl-2-propenyl methyl 4-(3-nitrophenyl)-2,6-dimethyl-1,4-dihydropyridine-3,5-dicarboxylate [Example 36]",59,130,> 4,25.0,69,> 220,
"COC(=O)C1=C(C)NC(C)=C(C(=O)OCCCC=Cc2ccccc2)C1c1cccc([N+](=O)[O-])c1 (centres unmarked) [Example 50, Methyl 5-phenyl-4-pentenyl 4-(3-nitrophenyl)-2,6-dimethyl-1,4-dihydropyridine-3,5-dicarboxylate]",,,,2,64,> 90,ΔBP After 1 hour [3]: -75 mmHg
"COC(=O)C1=C(C)NC(C)=C(C(=O)OC/C=C\c2ccccc2)C1c1cccc([N+](=O)[O-])c1 (stereo not drawn) [Example 56, Methyl (Z)-3-phenyl-2-propenyl 4-(3-nitrophenyl)-2,6-dimethyl-1,4-dihydropyridine-3,5-dicarboxylate (cis)]",,,,1.3,40.3,,"Depressure Response MaxΔBP ([4]; 10 μg/kg i.v.): 16.0 mmHg; Depressure Response Peak ([4]; 10 μg/kg i.v.): 1.2 min; MaxΔHR (Heart rates) ([4]; 10 μg/kg i.v.): 30.0 beats/min; T 1/2 (Halflife) ([4]; 10 μg/kg i.v.): 0.105 h; Depressure Response MaxΔBP ([4]; 30 μg/kg i.v.): 40.3 mmHg; Depressure Response Peak ([4]; 30 μg/kg i.v.): 1.3 min; MaxΔHR (Heart rates) ([4]; 30 μg/kg i.v.): 80.0 beats/min; T 1/2 (Halflife) ([4]; 30 μg/kg i.v.): 0.198 h; Depressure Response MaxΔBP ([4]; 100 μg/kg i.v.): 67.5 mmHg; Depressure Response Peak ([4]; 100 μg/kg i.v.): 1.8 min; MaxΔHR (Heart rates) ([4]; 100 μg/kg i.v.): 87.5 beats/min; T 1/2 (Halflife) ([4]; 100 μg/kg i.v.): 0.533 h; ED40 ([4]; Rattus norvegicus, intravenous, from regression line): 0.0299 mg/kg"
"COC(=O)C1=C(C)NC(C)=C(C(=O)OC(C)C=Cc2ccccc2)C1c1cccc([N+](=O)[O-])c1 (centres unmarked) [Example 30, 1-methyl-3-phenyl-2-propenyl methyl 4-(3-nitrophenyl)-2,6-dimethyl-1,4-dihydropyridine-3,5-dicarboxylate]",89,65,> 4,5.0,75,> 120,
"4-(4-methoxyphenyl)-3-butenyl methyl 4-(3-nitrophenyl)-2,6-dimethyl-1,4-dihydropyridine-3,5-dicarboxylate [Example 18]",18,37,2,,,,
"COC(=O)C1=C(C)NC(C)=C(C(=O)OCCC=Cc2ccccc2)C1c1cccc([N+](=O)[O-])c1 (centres unmarked) [Example 4, 4-phenyl-3-butenyl methyl 4-(3-nitrophenyl)-2,6-dimethyl-1,4-dihydropyridine-3,5-dicarboxylate]",20,105,> 2.83,1.3,63.3,> 90,
"CC=CC=CCOC(=O)C1=C(C)NC(C)=C(C(=O)OC)C1c1cccc([N+](=O)[O-])c1 (centres unmarked) [Example 66, methyl 2,4-hexadienyl 4-(3-nitrophenyl)-2,6-dimethyl-1,4-dihydropyridine-3,5-dicarboxylate]",65,35,> 2,1.4,71.7,> 90,halflife (number in parentheses in Duration column) [2]: 0.722 h
"COC(=O)C1=C(C)NC(C)=C(C(=O)OC(C)C=Cc2ccco2)C1c1cccc([N+](=O)[O-])c1 (centres unmarked) [Example 33, 1-methyl-3-furyl-3-propenyl methyl 4-(3-nitrophenyl)-2,6-dimethyl-1,4-dihydropyridine-3,5-dicarboxylate]",100,22,> 4,10.0,85,> 240,
"CC1=C(C(=O)OCC=CC=Cc2ccccc2)C(c2cccc([N+](=O)[O-])c2)C(C(=O)OC(C)C)=C(C)N1 (centres unmarked) [Example 61, Isopropyl 5-phenyl-2,4-pentadienyl 4-(3-nitrophenyl)-2,6-dimethyl-1,4-dihydropyridine-3,5-dicarboxylate]",,,,7.0,85,> 90,ΔBP After 1 hour [3]: -40 mmHg; ΔBP After 3 hours [3]: -100 mmHg
"C=CCOC(=O)C1=C(C)NC(C)=C(C(=O)OC)C1c1cccc([N+](=O)[O-])c1 (centres unmarked) [C, 4(3-nitrophenyl)-2,6-dimethyl-1,4-dihydropyridine-3,5-dicarboxylic aci 3methyl ester 5allyl ester, reference compound]",20,8,0.333,,,,
"C#CCOC(=O)C1=C(C)NC(C)=C(C(=O)OC)C1c1cccc([N+](=O)[O-])c1 (centres unmarked) [D, 4(3-nitrophenyl)-2,6-dimethyl-1,4-dihydropyridine-3,5-dicarboxylic aci 3methyl ester 5propargyl ester, reference compound]",0,,,,,,
"CC1=C(C(=O)OCC=Cc2ccccc2)C(c2cccc([N+](=O)[O-])c2)C(C(=O)OC(C)C=Cc2ccccc2)=C(C)N1 (centres unmarked) [Example 47, Cinnamyl 1-methyl-3-phenyl-2-propenyl 4-(3-nitrophenyl)-2,6-dimethyl-1,4-dihydropyridine-3,5-dicarboxylate]",,,,48,67,> 120,
"COC(=O)C1=C(C)NC(C)=C(C(=O)OCCC=Cc2ccc3ccccc3c2)C1c1cccc([N+](=O)[O-])c1 (stereo not drawn) [Example 12, 4-β-naphthyl-3-butenyl methyl 4-(3-nitrophenyl)-2,6-dimethyl-1,4-dihydropyridine-3,5-dicarboxylate]",,,,,,,ΔBP After 1 hour [3]: -30 mmHg; ΔBP After 3 hours [3]: -55 mmHg; Duration ([3]; '24<' means greater than 24): > 24 h
"C=C(C)COC(=O)C1=C(C)NC(C)=C(C(=O)OCC=CC=CC)C1c1cccc([N+](=O)[O-])c1 (centres unmarked) [Example 77, 2-methyl-2-propen-1-yl 2,4-hexadienyl 4-(3-nitrophenyl)-2,6-dimethyl-1,4-dihydropyridine-3,5-dicarboxylate]",,,,2,60,,
